Patent US20090203718A1, “CANCER TREATMENT METHOD” (SmithKline Beecham (Cork) Ltd., priority 2006, published 2009)

Key:
Format in all cases: cell-based, human
A549 cells [1] = experiment: Cell proliferation, BrdU ELISA and Celltiter Glo (FIG. 1)
A549 cells [2] = experiment: Apoptosis, Roche Cell Death ELISA and Caspase-3/7 (FIG. 1); details: for apoptosis: agent alone, 24 h
Procedure: (§1) A549 cells were grown in RPMI-1640 supplemented with 25 mM HEPES, 10 mM glutamine and 10% fetal bovine serum and maintained at 37° C. and 5% CO2 in a humid incubator. Colo205 and MDA-MB-468 cells were grown in DMEM supplemented with 25 mM HEPES, 10 mM glutamine, 4.5 g/L d-glucose, and 10% fetal bovine serum. Assays were performed in 96 well microtiter plates with optimum seeding densities for each cell line.
(§2) Apoptosis was measured using the Roche Cell Death ELISA^Plus kit (catalog 1 774 425) which detects fragmented nucleosomal DNA that is generated during apoptosis.
(§3) Cell death was measured using the Roche Cell Death ELISA^Plus kit and Promega Apo-ONE™ Homogeneous Caspase-3/7 Assay. Total cell number was measured using the Celltiter Glo® Luminescent Cell Viability Assay and cell proliferation was measured with the Roche BrdU Cell Proliferation ELISA assay.

Colo205 cells [3] = experiment: Cell proliferation, BrdU ELISA and Celltiter Glo (FIG. 2)
Procedure: (§4) Colo205 and MDA-MB-468 cells were grown in DMEM supplemented with 25 mM HEPES, 10 mM glutamine, 4.5 g/L d-glucose, and 10% fetal bovine serum. Assays were performed in 96 well microtiter plates with optimum seeding densities for each cell line.
(§5) Cell proliferation was measured using the Celltiter Glo® Luminescent Cell Viability Assay available from Promega Corporation and the Roche BrdU Cell Proliferation ELISA assay.
as §3

Colo205 cells [4] = experiment: Apoptosis, Roche Cell Death ELISA and Caspase-3/7 (FIG. 2); details: for apoptosis: agent alone, 24 h
Procedure: as §1, §2, §3

MDA-MB-468 cells [5] = experiment: Cell proliferation, BrdU ELISA and Celltiter Glo (FIG. 3)
Procedure: as §4, §5, §3

MDA-MB-468 cells [6] = experiment: Apoptosis, Roche Cell Death ELISA and Caspase-3/7 (FIG. 3); details: for apoptosis: agent alone, 24 h
Procedure: as §1, §2, §3

[7] = 1:1 molar ratio with GW572016, 24 h

Structure (SMILES) | cell proliferation, combination versus either agent alone (A549 cells [1]; [7]) | cell proliferation (A549 cells [1]; agent alone, 24 h) | apoptosis, combination versus either agent alone (A549 cells [2]; [7]) | apoptosis (A549 cells [2]) | cell proliferation, combination versus either agent alone (Colo205 cells [3]; [7]) | cell proliferation (Colo205 cells [3]; agent alone, 24 h) | apoptosis, combination versus either agent alone (Colo205 cells [4]; [7]) | apoptosis (Colo205 cells [4]) | cell proliferation, combination versus either agent alone (MDA-MB-468 cells [5]; [7]) | cell proliferation (MDA-MB-468 cells [5]; agent alone, 24 h) | apoptosis, combination versus either agent alone (MDA-MB-468 cells [6]; [7]) | apoptosis (MDA-MB-468 cells [6])
Nc1ncnc2c1c(-c1cccc(OCc3ccccc3)c1)cn2[C@H]1C[C@@H](CN2CCCC2)C1 [GSK621659A] | more effective than either agent alone | decreased cell proliferation | more effective than either agent alone | increased apoptosis | more effective than either agent alone | decreased cell proliferation | more effective than either agent alone | increased apoptosis | more effective than either agent alone | decreased cell proliferation | more effective than either agent alone | increased apoptosis
CS(=O)(=O)CCNCc1ccc(-c2ccc3ncnc(Nc4ccc(OCc5cccc(F)c5)c(Cl)c4)c3c2)o1 [GW572016, N-{3-Chloro-4-[(3-fluorobenzyl)oxy]phenyl}-6-[5-({[2-(methanesulphonyl)ethyl]amino}methyl)-2-furyl]-4-quinazolinamine ditosylate monohydrate] |  |  |  | increased apoptosis |  |  |  | increased apoptosis |  |  |  | increased apoptosis
